Measurements: article PMC6792352, “Limited Chemical Structural Diversity Found to Modulate Thyroid Hormone Receptor in the Tox21 Chemical Library” (Environmental Health Perspectives, 2019)
Counter-ions that a name gives are not always drawn.

Assay: in vitro
Details: rat, gh3-tre-luc cells

SMILES | CC50 at 24 h (AC50 (uM) modified / 1000, Tox21_110001=Tox21_301190, viability, 1 nM T3 present, 24 h) | CC50 at 24 h (AC50 (uM) modified / 1000)
O=S(=O)(c1ccccc1)c1ccccc1 [Diphenylsulfone] | > 90 µM | –
O=C(Nc1ccccc1)Nc1ccccc1 [Diphenylurea] | – | > 90 µM
C1CCN(CN2CCCCC2)CC1 [Dipiperidinomethane] | – | > 90 µM
CC(C)(C)C(=O)CC(=O)C(C)(C)C [Dipivaloylmethane] | – | > 100 µM
CNCC(O)c1ccc(OC(=O)C(C)(C)C)c(OC(=O)C(C)(C)C)c1 (centres unmarked) [Dipivefrin hydrochloride] | – | 10.3 µM
CC[N+](CC)(CC)CCOC(=O)C(C1CCCC1)C1CCCC1 [Diponium bromide] | – | > 50 µM
O=P(O)(O)OCC(O)CO (centres unmarked) [Dipotassium glycerophosphate] | – | > 50 µM
C=CCOC(=O)/C=C\C(=O)OCC=C [Diprop-2-en-1-yl (2Z)-but-2-enedioate] | – | > 90 µM
CC(C)OC(=O)CCC(=O)OC(C)C [Dipropan-2-yl butanedioate] | – | > 90 µM
CCCOC(=O)c1ccc(C(=O)OCCC)nc1 [Dipropyl 2,5-pyridinedicarboxylate] | – | > 90 µM
CCCSSCCC [Dipropyl disulfide] | – | > 90 µM
CCCOC(=O)CCCCC(=O)OCCC [Dipropyl hexanedioate] | – | > 90 µM
CCCOC(=O)c1ccccc1C(=O)OCCC [Dipropyl phthalate] | – | > 90 µM
CCCNCCC [Dipropylamine] | – | > 90 µM
COCCCOCCCOC [Dipropylene glycol dimethyl ether] | – | > 90 µM
COCC(C)OCC(C)O (centres unmarked) [Dipropylene glycol monomethyl ether] | – | > 90 µM

SMILES | CC50 at 24 h (AC50 (uM) modified / 1000, Tox21_110001=Tox21_301190, viability, 1 nM T3 present, 24 h) | CC50 at 24 h (AC50 (uM) modified / 1000)
CC(CO)OC(C)CO (centres unmarked) [Dipropylene glycol] | – | > 90 µM
COCC(C)OCC(C)OC(C)=O (centres unmarked) [Dipropyleneglycol methyl ether acetate] | – | > 90 µM
OCCN(CCO)c1nc(N2CCCCC2)c2nc(N(CCO)CCO)nc(N3CCCCC3)c2n1 [Dipyridamole] | – | > 50 µM
[O-][n+]1ccccc1SSc1cccc[n+]1[O-] [Dipyrithione] | – | 0.205 µM
CC(=O)Oc1cccc(C(=O)O)c1OC(C)=O [Dipyrocetyl] | – | > 50 µM
c1cc[n+]2c(c1)-c1cccc[n+]1CC2 [Diquat dibromide monohydrate] | – | > 50 µM
CC[C@H]1OC(=O)[C@H](C)[C@@H](O[C@H]2C[C@@](C)(OC)[C@@H](O)[C@H](C)O2)[C@H](C)[C@@H](O[C@@H]2O[C@H](C)C[C@H](N(C)C)[C@H]2O)[C@](C)(O)C[C@@H](C)[C@@H]2N[C@@H](COCCOC)O[C@H]([C@H]2C)[C@]1(C)O [Dirithromycin] | – | > 50 µM
CCCCCCCCCC[N+](C)(CCCCCCCCCC)CCC[Si](OC)(OC)OC [Disiquonium chloride] | – | 25.6 µM
O=S(=O)(O)c1ccc2cc(O)c(S(=O)(=O)O)cc2c1 [Disodium 3-hydroxynaphthalene-2,7-disulfonate] | – | > 90 µM
O=S(=O)(O)c1ccccc1/C=C/c1ccc(-c2ccc(/C=C/c3ccccc3S(=O)(=O)O)cc2)cc1 [Disodium 4,4'-bis(2-sulfostyryl)biphenyl] | – | > 80 µM
O=[N+]([O-])c1ccc(/C=C/c2ccc([N+](=O)[O-])cc2S(=O)(=O)O)c(S(=O)(=O)O)c1 [Disodium 4,4'-dinitro-2,2'-stilbenedisulfonate] | – | > 90 µM
CN1c2c(nc(N)[nH]c2=O)NCC1CNc1ccc(C(=O)N[C@@H](CCC(=O)O)C(=O)O)cc1 (some centres unmarked) [Disodium 5-methyltetrahydrofolate] | – | > 50 µM
O=S(=O)(O)c1cccc(S(=O)(=O)O)c1 [Disodium benzene-1,3-disulfonate] | – | > 90 µM
O=S(=O)(O)CCCS(=O)(=O)O [Disodium propane-1,3-disulfonate] | – | > 50 µM
CC(C)N(CCC(C(N)=O)(c1ccccc1)c1ccccn1)C(C)C (centres unmarked) [Disopyramide] | – | > 50 µM
CC(=O)OCCN(CCOC(C)=O)c1ccc(N=Nc2ccc([N+](=O)[O-])cc2C#N)cc1 [Disperse Red 82] | – | 54 µM
